In patent US20250312462A1, “PAK1 DEGRADERS AND METHODS OF USE THEREOF” (INSTITUTE FOR CANCER RESEARCH D/B/A THE RESEARCH INSTITUTE …, priority 2022, published 2025):

Experiments:
[1] = target: JAK1(JH1domain-catalytic) (Homo sapiens, UniProt P23458); test: KINOMEscan; settings: read-out: Percent Control
Description: (§1) The kinase engagement assay (KINOMEscan®) was performed by DiscoverX assessing binding abilities toward a set of kinases.

ARK5 = ARK5 (Homo sapiens, UniProt O60285); test: KINOMEscan; settings: read-out: Percent Control
Description: as §1

RET = RET (Homo sapiens, UniProt P07949); test: KINOMEscan; settings: read-out: Percent Control
Description: as §1

TNIK = TNIK (Homo sapiens, UniProt Q9UKE5); test: KINOMEscan; settings: read-out: Percent Control
Description: as §1

CSNK1G1 = CSNK1G1 (Homo sapiens, UniProt Q9HCP0); test: KINOMEscan; settings: read-out: Percent Control
Description: as §1

ERBB3 = ERBB3 (Homo sapiens, UniProt P21860); test: KINOMEscan; settings: read-out: Percent Control
Description: as §1

FAK = FAK (Homo sapiens, UniProt Q05397); test: KINOMEscan; settings: read-out: Percent Control
Description: as §1

PKN2 = PKN2 (Homo sapiens, UniProt Q16513); test: KINOMEscan; settings: read-out: Percent Control
Description: as §1

PIM1 = PIM1 (Homo sapiens, UniProt P11309); test: KINOMEscan; settings: read-out: Percent Control
Description: as §1

CSNK1G2 = CSNK1G2 (Homo sapiens, UniProt P78368); test: KINOMEscan; settings: read-out: Percent Control
Description: as §1

DCAMKL3 = DCAMKL3 (Homo sapiens, UniProt Q9C098); test: KINOMEscan; settings: read-out: Percent Control
Description: as §1

MST2 = MST2 (Homo sapiens, UniProt Q13188); test: KINOMEscan; settings: read-out: Percent Control
Description: as §1

EPHA4 = EPHA4 (Homo sapiens, UniProt P54764); test: KINOMEscan; settings: read-out: Percent Control
Description: as §1

KIT = KIT (Homo sapiens, UniProt P10721); test: KINOMEscan; settings: read-out: Percent Control
Description: as §1

FLT3(D835H) = FLT3(D835H) (Homo sapiens, UniProt P36888, D835H); test: KINOMEscan; settings: read-out: Percent Control
Description: as §1

BMPR1B = BMPR1B (Homo sapiens, UniProt O00238); test: KINOMEscan; settings: read-out: Percent Control
Description: as §1

ERK2 = ERK2 (Homo sapiens, UniProt P28482); test: KINOMEscan; settings: read-out: Percent Control
Description: as §1

KIT(V559D, T670I) = KIT(V559D, T670I) (Homo sapiens, UniProt P10721, T670I/V559D); test: KINOMEscan; settings: read-out: Percent Control
Description: as §1

AKT2 = AKT2 (Homo sapiens, UniProt P31751); test: KINOMEscan; settings: read-out: Percent Control
Description: as §1

AMPK-alpha1 = AMPK-alpha1 (Homo sapiens, UniProt Q13131); test: KINOMEscan; settings: read-out: Percent Control
Description: as §1

PDGFRB = PDGFRB (Homo sapiens, UniProt P09619); test: KINOMEscan; settings: read-out: Percent Control
Description: as §1

DYRK2 = DYRK2 (Homo sapiens, UniProt Q92630); test: KINOMEscan; settings: read-out: Percent Control
Description: as §1

PIK3C2B = PIK3C2B (Homo sapiens, UniProt O00750); test: KINOMEscan; settings: read-out: Percent Control
Description: as §1

NEK6 = NEK6 (Homo sapiens, UniProt Q9HC98); test: KINOMEscan; settings: read-out: Percent Control
Description: as §1

INSR = INSR (Homo sapiens, UniProt P06213); test: KINOMEscan; settings: read-out: Percent Control
Description: as §1

MYLK2 = MYLK2 (Homo sapiens, UniProt Q9H1R3); test: KINOMEscan; settings: read-out: Percent Control
Description: as §1

PIK3C2G = PIK3C2G (Homo sapiens, UniProt O75747); test: KINOMEscan; settings: read-out: Percent Control
Description: as §1

SIK = SIK (Homo sapiens, UniProt P57059); test: KINOMEscan; settings: read-out: Percent Control
Description: as §1

PRKCD = PRKCD (Homo sapiens, UniProt Q05655); test: KINOMEscan; settings: read-out: Percent Control
Description: as §1

RIPK4 = RIPK4 (Homo sapiens, UniProt P57078); test: KINOMEscan; settings: read-out: Percent Control
Description: as §1

NEK4 = NEK4 (Homo sapiens, UniProt P51957); test: KINOMEscan; settings: read-out: Percent Control
Description: as §1

BMPR2 = BMPR2 (Homo sapiens, UniProt Q13873); test: KINOMEscan; settings: read-out: Percent Control
Description: as §1

FLT3(N841I) = FLT3(N841I) (Homo sapiens, UniProt P36888, N841I); test: KINOMEscan; settings: read-out: Percent Control
Description: as §1

LATS1 = LATS1 (Homo sapiens, UniProt O95835); test: KINOMEscan; settings: read-out: Percent Control
Description: as §1

PIK3CB = PIK3CB (Homo sapiens, UniProt P42338); test: KINOMEscan; settings: read-out: Percent Control
Description: as §1

PIK3CD = PIK3CD (Homo sapiens, UniProt O00329); test: KINOMEscan; settings: read-out: Percent Control
Description: as §1

PRKCE = PRKCE (Homo sapiens, UniProt Q02156); test: KINOMEscan; settings: read-out: Percent Control
Description: as §1

PAK4 = PAK4 (Homo sapiens, UniProt O96013); test: Z'-LYTE FRET kinase inhibition assay; assay type: biochemical; design: purchased Invitrogen
Description: […]. […] […].

Sequence of PIK3C2B (O00750 whole entry): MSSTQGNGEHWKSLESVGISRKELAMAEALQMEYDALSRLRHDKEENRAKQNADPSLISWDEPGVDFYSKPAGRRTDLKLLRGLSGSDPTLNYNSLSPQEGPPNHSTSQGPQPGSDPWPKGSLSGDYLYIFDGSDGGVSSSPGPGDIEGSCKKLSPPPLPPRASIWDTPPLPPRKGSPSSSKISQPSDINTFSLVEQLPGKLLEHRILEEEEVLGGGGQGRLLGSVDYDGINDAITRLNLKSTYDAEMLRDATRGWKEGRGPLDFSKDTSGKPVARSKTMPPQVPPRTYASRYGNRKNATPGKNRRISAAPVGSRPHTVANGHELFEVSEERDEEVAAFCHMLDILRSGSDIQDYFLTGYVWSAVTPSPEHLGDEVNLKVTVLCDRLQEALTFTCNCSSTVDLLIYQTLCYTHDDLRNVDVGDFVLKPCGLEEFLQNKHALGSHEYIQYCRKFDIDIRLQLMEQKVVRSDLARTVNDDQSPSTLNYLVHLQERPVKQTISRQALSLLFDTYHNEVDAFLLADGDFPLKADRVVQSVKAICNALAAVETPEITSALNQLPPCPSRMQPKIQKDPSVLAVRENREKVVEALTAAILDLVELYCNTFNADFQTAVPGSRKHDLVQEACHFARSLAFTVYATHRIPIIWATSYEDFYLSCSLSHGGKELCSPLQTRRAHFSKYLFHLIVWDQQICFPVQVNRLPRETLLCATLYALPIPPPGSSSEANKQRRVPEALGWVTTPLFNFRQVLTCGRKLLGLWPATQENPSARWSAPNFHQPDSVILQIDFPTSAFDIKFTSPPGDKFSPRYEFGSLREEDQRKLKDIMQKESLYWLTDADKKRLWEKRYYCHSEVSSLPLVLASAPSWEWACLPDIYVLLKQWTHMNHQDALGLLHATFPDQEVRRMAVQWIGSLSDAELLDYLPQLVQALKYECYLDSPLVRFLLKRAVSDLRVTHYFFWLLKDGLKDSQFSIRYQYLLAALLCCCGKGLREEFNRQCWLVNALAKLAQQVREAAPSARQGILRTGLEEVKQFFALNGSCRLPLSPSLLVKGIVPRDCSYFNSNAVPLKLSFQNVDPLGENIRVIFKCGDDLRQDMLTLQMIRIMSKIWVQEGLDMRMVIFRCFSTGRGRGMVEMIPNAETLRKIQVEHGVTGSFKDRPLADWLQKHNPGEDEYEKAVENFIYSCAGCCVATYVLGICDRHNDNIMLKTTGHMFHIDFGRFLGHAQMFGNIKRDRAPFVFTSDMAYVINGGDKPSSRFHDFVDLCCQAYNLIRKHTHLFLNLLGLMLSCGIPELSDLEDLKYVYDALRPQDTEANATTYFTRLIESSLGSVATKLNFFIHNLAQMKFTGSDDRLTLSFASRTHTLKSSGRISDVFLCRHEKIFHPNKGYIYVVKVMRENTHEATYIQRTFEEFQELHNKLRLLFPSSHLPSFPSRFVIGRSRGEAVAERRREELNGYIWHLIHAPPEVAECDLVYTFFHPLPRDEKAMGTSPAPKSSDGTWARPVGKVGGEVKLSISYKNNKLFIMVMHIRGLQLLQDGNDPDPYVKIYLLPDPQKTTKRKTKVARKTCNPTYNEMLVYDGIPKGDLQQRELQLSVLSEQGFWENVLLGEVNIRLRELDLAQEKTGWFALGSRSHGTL
Sequence of CSNK1G2 (P78368 whole entry): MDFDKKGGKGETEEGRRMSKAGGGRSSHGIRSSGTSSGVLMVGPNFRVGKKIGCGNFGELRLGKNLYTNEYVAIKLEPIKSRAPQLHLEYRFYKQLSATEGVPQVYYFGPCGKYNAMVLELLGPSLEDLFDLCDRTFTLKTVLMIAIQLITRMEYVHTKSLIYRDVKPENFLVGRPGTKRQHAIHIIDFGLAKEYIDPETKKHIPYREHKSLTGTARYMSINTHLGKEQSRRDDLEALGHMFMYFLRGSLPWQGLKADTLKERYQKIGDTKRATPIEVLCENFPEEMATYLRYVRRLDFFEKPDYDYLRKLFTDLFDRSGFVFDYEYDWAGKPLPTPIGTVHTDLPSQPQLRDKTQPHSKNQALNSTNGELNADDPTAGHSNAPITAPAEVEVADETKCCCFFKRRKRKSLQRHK
Sequence of JAK1(JH1domain-catalytic) (P23458 875-1153 limits assumed): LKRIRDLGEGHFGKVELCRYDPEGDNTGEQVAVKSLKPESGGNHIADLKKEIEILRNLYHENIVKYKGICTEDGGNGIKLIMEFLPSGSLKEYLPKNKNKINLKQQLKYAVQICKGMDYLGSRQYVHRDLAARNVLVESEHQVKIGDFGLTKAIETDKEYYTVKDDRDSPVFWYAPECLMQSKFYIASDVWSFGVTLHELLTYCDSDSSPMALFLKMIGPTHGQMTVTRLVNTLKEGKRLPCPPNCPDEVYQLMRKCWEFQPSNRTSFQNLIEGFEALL
Sequence of PRKCD (Q05655 whole entry): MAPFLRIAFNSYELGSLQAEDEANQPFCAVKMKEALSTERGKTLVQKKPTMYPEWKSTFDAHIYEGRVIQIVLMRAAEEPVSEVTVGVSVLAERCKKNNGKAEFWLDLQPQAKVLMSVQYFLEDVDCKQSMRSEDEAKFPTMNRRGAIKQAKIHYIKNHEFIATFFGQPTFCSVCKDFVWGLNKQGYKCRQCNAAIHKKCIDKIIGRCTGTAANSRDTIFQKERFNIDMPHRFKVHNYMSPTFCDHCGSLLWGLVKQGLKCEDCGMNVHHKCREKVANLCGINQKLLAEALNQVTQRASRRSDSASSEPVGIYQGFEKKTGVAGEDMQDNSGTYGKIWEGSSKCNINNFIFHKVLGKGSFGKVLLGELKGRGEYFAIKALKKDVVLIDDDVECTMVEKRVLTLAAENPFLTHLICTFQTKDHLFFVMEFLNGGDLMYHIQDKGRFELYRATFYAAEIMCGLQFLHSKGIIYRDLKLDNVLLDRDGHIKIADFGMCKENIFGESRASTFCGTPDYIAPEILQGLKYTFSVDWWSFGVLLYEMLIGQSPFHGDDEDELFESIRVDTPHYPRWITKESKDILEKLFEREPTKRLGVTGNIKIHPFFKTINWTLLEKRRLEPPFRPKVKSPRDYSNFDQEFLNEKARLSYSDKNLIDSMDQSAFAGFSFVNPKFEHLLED
Sequence of RIPK4 (P57078 whole entry): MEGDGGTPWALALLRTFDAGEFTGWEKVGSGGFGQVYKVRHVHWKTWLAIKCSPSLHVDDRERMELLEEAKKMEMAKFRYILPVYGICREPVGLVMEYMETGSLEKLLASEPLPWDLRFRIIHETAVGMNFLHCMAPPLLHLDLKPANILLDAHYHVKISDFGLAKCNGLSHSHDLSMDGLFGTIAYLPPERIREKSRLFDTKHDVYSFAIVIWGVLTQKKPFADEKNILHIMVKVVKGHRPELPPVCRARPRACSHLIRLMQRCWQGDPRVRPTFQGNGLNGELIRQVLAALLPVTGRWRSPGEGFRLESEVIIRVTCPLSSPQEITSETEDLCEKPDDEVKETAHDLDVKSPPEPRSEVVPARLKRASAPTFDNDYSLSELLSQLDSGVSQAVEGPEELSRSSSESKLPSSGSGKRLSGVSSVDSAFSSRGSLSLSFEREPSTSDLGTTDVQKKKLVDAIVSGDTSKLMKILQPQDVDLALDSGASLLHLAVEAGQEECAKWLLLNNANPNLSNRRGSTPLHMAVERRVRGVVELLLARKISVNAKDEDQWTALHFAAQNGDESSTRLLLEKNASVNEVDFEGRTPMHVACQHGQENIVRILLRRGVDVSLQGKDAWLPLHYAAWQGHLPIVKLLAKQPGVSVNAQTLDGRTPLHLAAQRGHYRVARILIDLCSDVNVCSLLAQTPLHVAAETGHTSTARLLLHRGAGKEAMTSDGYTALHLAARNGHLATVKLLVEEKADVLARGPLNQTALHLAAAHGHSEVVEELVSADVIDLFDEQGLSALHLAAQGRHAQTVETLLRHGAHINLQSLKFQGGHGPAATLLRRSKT
Sequence of LATS1 (O95835 whole entry): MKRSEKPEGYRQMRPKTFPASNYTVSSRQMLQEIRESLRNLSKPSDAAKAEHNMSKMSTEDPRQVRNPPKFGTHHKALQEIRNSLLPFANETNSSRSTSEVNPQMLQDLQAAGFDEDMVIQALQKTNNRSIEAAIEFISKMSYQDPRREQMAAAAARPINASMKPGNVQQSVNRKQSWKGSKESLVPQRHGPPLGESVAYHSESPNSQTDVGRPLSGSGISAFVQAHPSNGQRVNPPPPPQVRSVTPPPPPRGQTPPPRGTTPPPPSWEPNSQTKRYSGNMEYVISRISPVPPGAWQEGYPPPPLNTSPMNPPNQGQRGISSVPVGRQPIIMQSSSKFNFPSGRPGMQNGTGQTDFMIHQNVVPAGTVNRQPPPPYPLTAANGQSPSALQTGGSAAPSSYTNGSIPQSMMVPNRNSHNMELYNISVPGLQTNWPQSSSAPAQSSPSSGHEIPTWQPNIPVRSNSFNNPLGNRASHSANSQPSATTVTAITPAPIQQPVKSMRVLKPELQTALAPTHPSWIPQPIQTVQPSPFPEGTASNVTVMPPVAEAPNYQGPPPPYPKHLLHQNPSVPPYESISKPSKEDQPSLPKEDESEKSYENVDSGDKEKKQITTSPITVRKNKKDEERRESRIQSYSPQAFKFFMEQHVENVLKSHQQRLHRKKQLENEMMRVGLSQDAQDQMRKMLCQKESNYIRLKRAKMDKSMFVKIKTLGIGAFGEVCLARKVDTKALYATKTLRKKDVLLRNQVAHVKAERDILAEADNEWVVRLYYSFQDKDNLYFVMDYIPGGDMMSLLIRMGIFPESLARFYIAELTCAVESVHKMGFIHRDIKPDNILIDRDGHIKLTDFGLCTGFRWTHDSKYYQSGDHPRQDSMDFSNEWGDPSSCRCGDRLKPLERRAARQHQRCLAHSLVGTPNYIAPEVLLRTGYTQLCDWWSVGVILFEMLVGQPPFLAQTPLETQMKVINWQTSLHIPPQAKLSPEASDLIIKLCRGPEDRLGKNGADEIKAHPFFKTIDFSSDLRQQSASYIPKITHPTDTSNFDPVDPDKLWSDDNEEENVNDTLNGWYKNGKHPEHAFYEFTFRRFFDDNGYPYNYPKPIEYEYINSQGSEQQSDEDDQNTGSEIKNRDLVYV

`O=C1CCC(N2C(=O)c3cccc(NCCCCCCCCNC(=O)N4CC[C@H](NC5=Nc6cc(F)ccc6N(CC(F)F)c6ccc(Cl)cc65)C4)c3C2=O)C(=O)N1` (stereo partly drawn) [BJG-05-039, (3S)-3-((2-Chloro-5-(2,2-difluoroethyl)-8-fluoro-5H-dibenzo[b,e][1,4]diazepin-11-yl)amino)-N-(8-((2-(2,6-dioxopiperidin-3-yl)-1,3-dioxoisoindolin-4-yl)amino)octyl)pyrrolidine-1-carboxamide] showed a remaining binding at 10 µM [1] of 42%, a remaining binding at 10 µM (ARK5) of 45% and a remaining binding at 10 µM (RET) of 46%. The remaining binding at 10 µM (TNIK) was 48%, the remaining binding at 10 µM (CSNK1G1) was 52% and the remaining binding at 10 µM (ERBB3) was 59%. The remaining binding at 10 µM (FAK) was 65%, the remaining binding at 10 µM (PKN2) was 65% and the remaining binding at 10 µM (PIM1) was 75%. For the same compound, the remaining binding at 10 µM (CSNK1G2) was 78%, the remaining binding at 10 µM (DCAMKL3) was 79% and the remaining binding at 10 µM (MST2) was 80%. It also gave a remaining binding at 10 µM (EPHA4) of 82%, a remaining binding at 10 µM (KIT) of 82% and a remaining binding at 10 µM (FLT3(D835H)) of 83%. For the same compound, the remaining binding at 10 µM (BMPR1B) was 85%, the remaining binding at 10 µM (ERK2) was 85% and the remaining binding at 10 µM (KIT(V559D, T670I)) was 85%. For the same compound, the remaining binding at 10 µM (AKT2) was 86%, the remaining binding at 10 µM (AMPK-alpha1) was 86% and the remaining binding at 10 µM (PDGFRB) was 86%. It also gave a remaining binding at 10 µM (DYRK2) of 89%, a remaining binding at 10 µM (PIK3C2B) of 90% and a remaining binding at 10 µM (NEK6) of 91%. The remaining binding at 10 µM (INSR) was 93%, the remaining binding at 10 µM (MYLK2) was 93% and the remaining binding at 10 µM (PIK3C2G) was 95%. The remaining binding at 10 µM (SIK) was 95%, the remaining binding at 10 µM (PRKCD) was 97% and the remaining binding at 10 µM (RIPK4) was 98%. It also gave a remaining binding at 10 µM (NEK4) of 99%, a remaining binding at 10 µM (BMPR2) of 100% and a remaining binding at 10 µM (FLT3(N841I)) of 100%. The remaining binding at 10 µM (LATS1) was 100%, the remaining binding at 10 µM (PIK3CB) was 100% and the remaining binding at 10 µM (PIK3CD) was 100%. It also gave a remaining binding at 10 µM (PRKCE) of 100% and an IC50 (PAK4) of over 10 µM.
